Experimental data from patent publication US20150141485A1, “PROGNOSIS AND TREATMENT OF LUNG CANCER USING miRNA-135b” (NATIONAL CHENG KUNG UNIVERSITY, priority 2013, published 2015).
Oligonucleotides are written 5' to 3', each unit as a sugar letter and its base; * is a phosphorothioate linkage, no mark a phosphodiester; rarer units and linkages stand in square brackets, end groups in braces. Plain capitals give the bases only. {Chol} = cholesterol; m = 2'-O-methyl

Tests used:
CL1-5-F4 cells [1] = assay: Transwell invasion assay; format: cell-based, human; details: CL1-5-F4 cells transfected 48 hours, vs scramble (NC)
Experimental: (§1) CL1-5-F4 and Hop-62 cells were transfected with scramble (NC) of miR-135b-specific antagomir (Antago-135b) for 48 hours and the subjected to migration assays (FIG. 2d) and invasion assays (FIG. 2e) as described above. *P<0.05;**P<0.005 by Student's t-test.
CL1-5-F4 cells transfected with plasmids expressing either control or miR-135b sponges were analyzed using in vitro invasion assay. The average number of invading cells obtained in the transwell invasion assay is presented (n=3).
(§2) Transwell chambers ([…], BD Falcon, Franklin Lakes, N.J.) were coated with the appropriate amount of Matrigel (BD Biosciences, San Jose, Calif.). Next, 2.5×10^4 cells were suspended in NuSerum-containing media (Gibco BRL, Grand Island N.Y., USA), seeded in the chamber and cultured, Cells that invaded the chamber from top to bottom were fixed with methanol and stained with a solution of propidium iodine (Sigma-Aldrich, St. Louis, Mo.). The propidiumiodine-positive signal was quantified using Analytical Imaging Station software package. Each sample was assayed in triplicate.

Hop-62 cells = assay: Transwell invasion assay; format: cell-based; details: Hop-62 cells transfected 48 hours, vs scramble (NC)
Experimental: as §1, §2

[2] = tested on: H441 human lung adenocarcinoma cells; assay: Subcutaneous xenograft tumor growth; format: in vivo, nude mice
Experimental: Nude mice were subcutaneously injected with 5×10^5 H441 cells. Scramble antagomir (NC) or miR-135b Antagomir (antago-135b) was administered via tail vein injection 2 days after implantation. On day 14 after cancer cell implantation, tumor volume measurements began and were performed every 4 days (n=9). Mean±s.e.m. is shown,*P<0.05 by Student's t-test.
Animals were housed in a specific-pathgen-free environment in the animal facility of the Institute of Biomedical Sciences, Academia Sinica. All experimental procedures were in compliance with the Academia Sinica IACUC and Council of Agriculture Guidebook for the Care and Use of Laboratory Animals. For intravenous injections of the tumor cells, 1×10^6 cells were suspended in 0.1 mL of phosphate-buffered saline (PBS) and injected into lateral tail vein of SCID mice (10 mice per group). At 8 weeks after injection, all mice were killed, and lung surface tumor foci were counted. For the subcutaneous tumor assay, 1×10^6 CL1-0 cells or 2×10^5 H441 cells were subcutaneously injected in 0.1 mL of PBS into male nude mice (n=8 per group) and allowed to grow for 35 days to reach a volume of 50-200 mm^3 Control antagomir (Scramble) or anti-miR-135b antagomir (antago-135) was intravenously injected at a concentration of 10 μM in 0.1 mL of PBS 4 days after the cells were implanted. An example of a miR-135b antagomir is 5′mU(*)mC(*)mAmCmAmUmAmG-mGmAmAmUmGmAmAmAmAmGmCmC(*)mA(*)mU(*)mA(*)(3′-Ch1)3′ (SEQ ID NO:8). The mN indicates 2′-O-methyl base;* indicates phosphorothioate linkage; Ch1 indicates cholesterol.

CL1-5-F4 cells [3] = assay: Western blot of endogenous LZTS1; format: cell-based, human; details: 100 nM, 48 hours
Experimental: (§3) CL1-5-F4 and UACC-257 cells were administrated with 100 nM of negative control (NC) or antago-135b for 48 hours. Total cell lysates were harvested for western blot analysis.

UACC-257 cells = assay: Western blot of endogenous LZTS1; format: cell-based; details: 100 nM, 48 hours
Experimental: as §3

[4] = antagomir systemically injected 4 days after cancer cell implantation

## 5′mU(*)mC(*)mAmCmAmUmAmG-mGmAmAmUmGmAmAmAmAmGmCmC(*)mA(*)mU(*)mA(*)(3′-Ch1)3′ (SEQ ID NO:8) (mU*mC*mAmCmAmUmAmGmGmAmAmUmGmAmAmAmAmGmCmC*mA*mU*mA*{Chol}) [miR-135b antagomir]
CL1-5-F4 cells [1]
  invasive ability: inhibited these changes
Hop-62 cells
  invasive ability: inhibited these changes
[2]; antagomir administered before xenograft implantation
  growth of H441 cells: inhibited
[2]; [4]
  xenograft tumor incidence: significantly reduced
  xenograft tumor volume: significantly reduced
CL1-5-F4 cells [3]
  LZTS1 expression: significantly increased
UACC-257 cells
  LZTS1 expression: significantly increased
